The results in this text go back to US7524503B2, “Human cytomegalovirus (HCMV) cytotoxic T cell epitopes, polyepitopes compositions comprising same and diagnostic and prophylactic and therapeutic uses therefor” (priority 2001, dated 2009).

What all share (format): cell-based, human
One assay has as its system HLA B8. Briefly: MHC stabilization assay on T2 cells. As to conditions: HLA B8 on transfected T2 cells; relative increase vs no peptide at 26° C.
For another assay, the system named is HLA B27. Briefly: MHC stabilization assay on T2 cells. Particulars: HLA B27 on transfected T2 cells; relative increase vs no peptide at 26° C.
Assay [1] has as its system PBMC from healthy HCMV seropositive donors. Briefly: IFN-γ ELISPOT assay. Particulars: peptide 10 μg/ml. An outline of the steps:
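IFN-γ-secreting T cells were counted as spots, with no-peptide control wells subtracted and means taken from triplicate wells. These spots came from healthy seropositive carriers' PBMC, 2.5×10^5 per well.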

As to RRRHRQDAL, the “MSE (MHC stabilization efficiency)” value in the assay on HLA B8 is given as “+ (+ = 51-99%)”; in the assay on HLA B27 it was “++ (++ = 100-199%)”. In addition, the “ELISPOT Responses (SFC/10^6 PBMC)” value stood at 215 SFC/10^6 PBMC in assay [1] (donor eleven) and 71 SFC/10^6 PBMC in assay [1] (donor sixteen).
